According to paper PMC12527922, “Cocaine chemogenetics blunts drug-seeking by synthetic physiology” (Nature, 2025):
Several values for one entry are separate records, joined by “and”; a condition that tells them apart may be missing. Equal values may be shown once. Read-outs that look alike come from different tables or passages of the source.

Experiments:
[1] = biological target: T1, unmodified α7–GlyR (Homo sapiens, UniProt P23415+P36544); experiment: Membrane potential assay, unmodified α7–GlyR; type: cell-based; conditions: a7-GlyR; for Max normalized AVG: AVG of DR 1-3
T1 construct: expressed in transfected cells; host or cells: HEK293 (ATCC CRL-1573), pcDNA3.1
T1 sequence (P36544+P23415 fused): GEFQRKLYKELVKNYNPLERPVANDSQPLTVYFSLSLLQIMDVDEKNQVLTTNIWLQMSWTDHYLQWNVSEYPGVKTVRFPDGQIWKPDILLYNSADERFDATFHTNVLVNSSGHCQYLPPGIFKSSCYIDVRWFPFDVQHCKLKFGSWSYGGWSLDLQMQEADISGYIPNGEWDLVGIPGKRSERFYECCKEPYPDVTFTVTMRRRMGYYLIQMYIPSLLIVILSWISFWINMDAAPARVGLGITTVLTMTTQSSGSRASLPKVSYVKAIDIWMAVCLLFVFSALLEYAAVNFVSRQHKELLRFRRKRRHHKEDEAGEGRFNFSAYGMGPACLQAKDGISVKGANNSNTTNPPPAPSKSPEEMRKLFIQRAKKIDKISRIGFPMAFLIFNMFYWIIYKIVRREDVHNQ

[2] = system: coca-5HT3; experiment: Whole-cell voltage-clamp in HEK293 cells, coca-5HT3; type: cell-based, human α7 nAChR LBD, mouse 5HT3 IPD
Description: Channel mutants and agonists were further characterized in whole-cell voltage-clamp experiments performed on HEK293 cells. At passage 44–48, cells were plated at low density (1 × 10^3 per cm^2) on poly-D-lysine-coated glass coverslips, then transfected in 10 cm^2 wells using the Fugene 6 transfection reagent (Roche) with DNA plasmids containing both an ion channel cDNA (pcDNA3.1, 2 µg per well) and cDNA for GFP (pCMV, 0.1 μg per well), followed by replacement of the medium after 3 h. Recordings were made 24–72 h after transfection.
Electrophysiological recordings were performed in whole-cell voltage-clamp mode, on an inverted fluorescence microscope (Olympus IX-51) using pClamp software and a […] amplifier (Molecular Devices). Electrophysiological data was filtered at 4 kHz, digitized at 10 kHz using a Digidata 1400 interface (Molecular Devices), recorded on a PC (Dell) and analysed using custom MATLAB software (MathWorks). Solutions were delivered from a gravity fed perfusion system through a capillary tube placed approximately […] from the recorded cell using an eight-way manifold pinch valve system (Nanion), which was controlled from the acquisition software. This allowed for up to seven concentrations of agonist to be tested. […]

[3] = biological target: T2, coca-GlyR (α7(L141G,G175K,Y217F)–GlyR) (Homo sapiens, UniProt P23415+P36544, G175K/L141G/Y217F); experiment: Membrane potential assay, coca-GlyR in HEK293; type: cell-based; conditions: coca-GlyR; for Max normalized AVG: AVG of DRs
T2 construct: expressed in transfected cells; host or cells: HEK293 (ATCC CRL-1573), pcDNA3.1
T2 sequence (P36544+P23415 fused P36544:L141G/P36544:G175K/P36544:Y217F): as the sequence (P36544+P23415 fused) above, with L119G, G153K, Y195F counted along it

[4] = system: α7–5HT3 mutant chimeric channels; experiment: cell-based; type: cell-based, human α7 nAChR LBD, mouse 5HT3 IPD; conditions: for EC50: sheet 1e
[5] = biological target: T3, unmodified α7–5HT3 (UniProt P23979+P36544, M226I/T225I); experiment: Membrane potential assay, unmodified α7–5HT3; type: cell-based, human α7 nAChR LBD, mouse 5HT3 IPD; conditions: a7-5Ht3; for Max normalized AVG: AVG of DR 1-3; for Max normalized, single replicate: relative to ACh max of the DR
T3 construct: expressed in transfected cells; host or cells: HEK293 (ATCC CRL-1573), pcDNA3.1
T3 sequence (P36544+P23979 fused P36544:T225I/P36544:M226I): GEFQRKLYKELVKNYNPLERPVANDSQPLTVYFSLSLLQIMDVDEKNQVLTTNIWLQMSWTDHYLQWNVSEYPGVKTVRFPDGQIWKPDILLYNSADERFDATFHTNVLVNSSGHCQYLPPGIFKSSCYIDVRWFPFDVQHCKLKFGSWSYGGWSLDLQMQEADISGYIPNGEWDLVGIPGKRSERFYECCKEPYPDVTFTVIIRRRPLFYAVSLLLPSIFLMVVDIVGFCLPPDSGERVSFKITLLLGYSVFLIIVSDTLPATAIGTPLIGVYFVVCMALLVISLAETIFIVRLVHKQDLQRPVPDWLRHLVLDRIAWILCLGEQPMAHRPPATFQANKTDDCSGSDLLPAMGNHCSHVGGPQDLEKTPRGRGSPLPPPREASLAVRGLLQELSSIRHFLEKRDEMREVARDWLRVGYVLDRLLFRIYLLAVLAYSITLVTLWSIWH

[6] = screen of chimeric α7–5HT3 and α7–GlyR single LBD mutants (Fig. 1d)

CC(=O)OCC[N+](C)(C)C [ACh, acetylcholine]
Max normalized, single replicate ([1]; [ACh] 0.0457247): 0.2482 and 0.1071 and 0.173
Max normalized AVG ([1]; [ACh] 0.0457247): 0.1761
Max normalized AVG ([1]; [ACh] 0.137174): 0.1486
Max normalized, single replicate ([1]; [ACh] 0.411523): 0.2506 and 0.0705 and 0.1596
Max normalized AVG ([1]; [ACh] 0.411523): 0.1602
Max normalized, single replicate ([1]; [ACh] 1.23457): 0.2787 and 0.09661 and 0.1213
Max normalized AVG ([1]; [ACh] 1.23457): 0.1655
Max normalized, single replicate ([1]; [ACh] 3.7037): 0.4426 and 0.3029 and 0.2921
Max normalized AVG ([1]; [ACh] 3.7037): 0.3459
Max normalized, single replicate ([1]; [ACh] 11.1111): 0.8337 and 0.671 and 0.6315
Max normalized AVG ([1]; [ACh] 11.1111): 0.7121
Max normalized, single replicate ([1]; [ACh] 33.3333): 0.9719 and 0.9347 and 0.9843
Max normalized AVG ([1]; [ACh] 33.3333): 0.9636
Max normalized, single replicate ([1]; [ACh] 100): 1
Max normalized AVG ([1]; [ACh] 100): 1
DR response, single replicate ([1]; concentration 0.0457247): 0.077 and 0.106 and 0.041
DR response, single replicate ([1]; concentration 0.137174): 0.046 and 0.076 and 0.063
DR response, single replicate ([1]; concentration 0.411523): 0.071 and 0.107 and 0.027
DR response, single replicate ([1]; concentration 1.23457): 0.054 and 0.119 and 0.037
DR response, single replicate ([1]; concentration 3.7037): 0.13 and 0.189 and 0.116
DR response, single replicate ([1]; concentration 11.1111): 0.281 and 0.356 and 0.257
DR response, single replicate ([1]; concentration 33.3333): 0.438 and 0.415 and 0.358
DR response, single replicate ([1]; concentration 100): 0.445 and 0.427 and 0.383
max (DR response of the replicate) ([1]; largest response of each DR): 0.445 and 0.427 and 0.383
currents from coca-5HT3 [2]: shifted above physiological concentrations
DR response, single replicate ([3]; [ACh] 1.37174): 0.018 and 0.006 and 0.023 and 0.1 and 0.117 and 0.055 and 0.048 and 0.049
Max normalized, single replicate ([3]; [ACh] 1.37174): 0.004983 and 0.06336 and 0.1695 and 0.06161 and 0.07891 and 0.05993 and 0.05731 and 0.01172
Max normalized AVG ([3]; [ACh] 1.37174): 0.06341
DR response, single replicate ([3]; [ACh] 4.11523): 0.031 (2×) and 0.023 and 0.017 and 0.194 and 0.139 and 0.02 and 0.098
Max normalized, single replicate ([3]; [ACh] 4.11523): 0.0191 and 0.04683 and 0.3288 and 0.0732 and 0.02869 and 0.0387 and 0.1146 and 0.02018
Max normalized AVG ([3]; [ACh] 4.11523): 0.08377
DR response, single replicate ([3]; [ACh] 12.3457): 0.127 and 0.17 and 0.031 and 0.325 and 0.191 and 0.086 and 0.042 and 0.079
Max normalized AVG ([3]; [ACh] 12.3457): 0.1536
DR response, single replicate ([3]; [ACh] 37.037): 0.513 and 0.713 and 0.076 and 0.453 and 1.051 and 0.206 and 0.22 and 0.227
Max normalized, single replicate ([3]; [ACh] 37.037): 0.5922 and 0.2094 and 0.7678 and 0.5534 and 0.2956 and 0.2747 and 0.2655 and 0.334
Max normalized AVG ([3]; [ACh] 37.037): 0.4116
DR response, single replicate ([3]; [ACh] 111.111): 1.218 and 1.065 and 0.222 and 0.557 and 1.552 and 0.373 and 0.414 and 0.475
Max normalized AVG ([3]; [ACh] 111.111): 0.7072
Max normalized, single replicate ([3]; [ACh] 333.333): 0.9626 and 0.9449 and 1 (5×) and 0.9414
Max normalized AVG ([3]; [ACh] 333.333): 0.9811
DR response, single replicate ([3]; [ACh] 1000): 1.536 and 1.204 and 0.363 and 0.524 and 0.67 and 0.657 and 0.77
Max normalized, single replicate ([3]; [ACh] 1000): 1 (3×) and 0.8881 and 0.9613 and 0.8202 and 0.9006
Max normalized AVG ([3]; [ACh] 1000): 0.9386
DR response, single replicate ([3]; [ACh] 3000): 1.183 and 0.791 and 0.464
Max normalized, single replicate ([3]; [ACh] 3000): 0.657 and 0.7864 and 0.7702
Max normalized AVG ([3]; [ACh] 3000): 0.7379
DR response, single replicate ([5]; concentration 0.0457247): 0.056 and 0.121 and 0.112
Max normalized AVG ([5]; concentration 0.0457247): 0.09523
Max normalized, single replicate ([5]; concentration 0.0457247): 0.1142 and 0.1039 and 0.06763
DR response, single replicate ([5]; concentration 0.137174): 0.034 and 0.057 and 0.037
Max normalized AVG ([5]; concentration 0.137174): 0.04305
Max normalized, single replicate ([5]; concentration 0.137174): 0.05377 and 0.03432 and 0.04106
DR response, single replicate ([5]; concentration 0.411523): 0.071 and 0.056 and 0.06
Max normalized AVG ([5]; concentration 0.411523): 0.06475
Max normalized, single replicate ([5]; concentration 0.411523): 0.05283 and 0.05566 and 0.08575
DR response, single replicate ([5]; concentration 1.23457): 0.065 and 0.06 and 0.083
Max normalized AVG ([5]; concentration 1.23457): 0.0707
Max normalized, single replicate ([5]; concentration 1.23457): 0.0566 and 0.07699 and 0.0785
DR response, single replicate ([5]; concentration 3.7037): 0.161 and 0.213 and 0.204
Max normalized AVG ([5]; concentration 3.7037): 0.1949
Max normalized, single replicate ([5]; concentration 3.7037): 0.2009 and 0.1892 and 0.1944
DR response, single replicate ([5]; concentration 11.1111): 0.486 and 0.61 and 0.657
Max normalized AVG ([5]; concentration 11.1111): 0.5906
Max normalized, single replicate ([5]; concentration 11.1111): 0.5755 and 0.6095 and 0.587
DR response, single replicate ([5]; concentration 33.3333): 0.828 and 1.06 and 1.078
Max normalized AVG ([5]; concentration 33.3333): 1
Max normalized, single replicate ([5]; concentration 33.3333): 1
DR response, single replicate ([5]; concentration 100): 0.762 and 0.959 and 0.926
Max normalized AVG ([5]; concentration 100): 0.8947
Max normalized, single replicate ([5]; concentration 100): 0.9047 and 0.859 and 0.9203
max (DR response of the replicate) ([5]; largest response of each DR): 0.828 and 1.06 and 1.078
